{
  "source": "patent US12371454B2",
  "about": "“Cyclic peptide compound having Kras inhibitory action” (priority 2019, dated 2025)",
  "note": "Starred links: 1 amine or outer side, 2 acyl side, 3 side chain; linkers in the order of their positions; H or OH if unused. Positions of bridges follow the written chain, without caps; N, C: chain ends. Non-standard residues stand in square brackets, D forms with d. Residues, ends and D or L forms follow the SMILES beside them. *: point of attachment. hPhe(3-Cl-4-CF3) = N[C@@H](CCc1ccc(C(F)(F)F)c(Cl)c1)C(=O)O; X23 = CN([C@@H](Cc1ccccc1OC(F)(F)F)C(=O)[*:2])[*:1]; NMePhe(4-Me) = CN[C@@H](Cc1ccc(C)cc1)C(=O)O; NMePhe(4-F) = CN[C@@H](Cc1ccc(F)cc1)C(=O)O; NMeNva(5,5-F2) = CN[C@@H](CCC(F)F)C(=O)O; NMeGly(cPent) = CN[C@H](C(=O)O)C1CCCC1; NMeAla(cPr) = CN[C@@H](CC1CC1)C(=O)O; NMehPhe = CN[C@@H](CCc1ccccc1)C(=O)O; NMeCha = CN[C@@H](CC1CCCCC1)C(=O)O; NMeChg = CN[C@H](C(=O)O)C1CCCCC1; NMeI = CC[C@H](C)[C@H](NC)C(=O)O; NMeD = CN[C@@H](CC(=O)O)C(=O)O; NMeL = CN[C@@H](CC(C)C)C(=O)O; hLeu = CC(C)CC[C@H](N)C(=O)O; NMeV = CN[C@H](C(=O)O)C(C)C; d(β3hA) = C[C@@H](N)CC(=O)O; Ac6c = NC1(C(=O)O)CCCCC1; NMeA = CN[C@@H](C)C(=O)O; Piperidide = C1CCN(*)CC1; Pyrrolidide = C1CCN(*)C1; dNMeA = CN[C@H](C)C(=O)O; Ac5c = NC1(C(=O)O)CCCC1; Aze = O=C(O)[C@@H]1CCN1; Sar = CNCC(=O)O",
  "data": [
    {"biological_target": "T1, Kras and SOS1 (biotin-tagged human Kras loaded with GDP, His-tagged human SOS1) (Homo sapiens, UniProt P01116, G12D)", "T1 construct": "made in house; host or cells: E. coli (stated for Kras only)", "T1 sequence (P01116 1-188 isoform P01116-2 G12D)": "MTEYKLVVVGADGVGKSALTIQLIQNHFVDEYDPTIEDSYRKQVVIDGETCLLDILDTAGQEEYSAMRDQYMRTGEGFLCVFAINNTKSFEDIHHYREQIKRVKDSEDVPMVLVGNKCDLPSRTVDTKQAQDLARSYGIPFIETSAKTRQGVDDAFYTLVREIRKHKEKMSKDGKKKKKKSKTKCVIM", "assay": "Protein-protein interaction inhibition between Kras and SOS1 (KrasGl2D-SOS PPI) using AlphaScreen", "type": "binding", "conditions": "AlphaScreen; biotin-tagged human Kras loaded with GDP, His-tagged human SOS1; read-out: KRAS G12D-SOS PPI IC50", "method_in_brief": "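Donor beads (nickel) hold His-SOS1; acceptor beads (streptavidin) hold biotin-Kras bound to GDP. Signal measured at 520-620 nm following 680 nm excitation.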", "units": {"IC50": "nM"}, "values": [
      {"smiles": "CC[C@H](C)[C@@H]1NC(=O)[C@H](CC(C)C)N(C)C(=O)C[C@@H](C)NC(=O)[C@H](C(C)C)N(C)C(=O)C2(CCCC2)NC(=O)[C@@H]2CCCN2C(=O)[C@H](CCc2ccc(C(F)(F)F)c(Cl)c2)NC(=O)CN(C)C(=O)[C@H](CCc2ccccc2)N(C)C(=O)CN(C)C(=O)CN(C)C1=O", "note": "[Compound 1627] (cyclo([Ac5c][NMeV][d(β3hA)][NMeL]I[Sar][Sar][NMehPhe][Sar][hPhe(3-Cl-4-CF3)]P))", "IC50": 15},
      {"smiles": "CC[C@H](C)[C@@H]1NC(=O)[C@H](CC(C)C)N(C)C(=O)C[C@@H](C)NC(=O)[C@H](C(C)C)N(C)C(=O)C2(CCCC2)NC(=O)[C@@H]2CCCN2C(=O)[C@H](CCc2ccc(C(F)(F)F)c(Cl)c2)NC(=O)CN(C)C(=O)[C@H](Cc2ccccc2OC(F)(F)F)N(C)C(=O)CN(C)C(=O)CN(C)C1=O", "note": "[Compound 1635] (cyclo([Ac5c][NMeV][d(β3hA)][NMeL]I[Sar][Sar][X23][Sar][hPhe(3-Cl-4-CF3)]P))", "IC50": 140},
      {"smiles": "CC[C@H](C)[C@@H]1NC(=O)[C@H](CC(C)C)N(C)C(=O)C[C@@H](C(=O)N2CCCCC2)N(C)C(=O)[C@H](C(C)C)N(C)C(=O)C2(CCCC2)NC(=O)[C@@H]2CCCN2C(=O)[C@H](CCc2ccc(C(F)(F)F)c(Cl)c2)NC(=O)CN(C)C(=O)[C@H](CC2CCCCC2)N(C)C(=O)[C@@H]2CCN2C(=O)[C@H](CC2CC2)N(C)C1=O", "note": "[Compound 1642] ([NMeL]I[NMeAla(cPr)][Aze][NMeCha][Sar][hPhe(3-Cl-4-CF3)]P[Ac5c][NMeV][NMeD]-Piperidide; lactam N-11)", "IC50": 58},
      {"smiles": "CC[C@H](C)[C@@H]1NC(=O)[C@H](CC(C)C)N(C)C(=O)C[C@@H](C(=O)N2CCCCC2)N(C)C(=O)[C@H](C2CCCCC2)N(C)C(=O)C2(CCCCC2)NC(=O)[C@@H]2CCCN2C(=O)[C@H](CCc2ccc(C(F)(F)F)c(Cl)c2)NC(=O)CN(C)C(=O)[C@H](CC2CCCCC2)N(C)C(=O)CN(C)C(=O)CN(C)C1=O", "note": "[Compound 1644] ([NMeL]I[Sar][Sar][NMeCha][Sar][hPhe(3-Cl-4-CF3)]P[Ac6c][NMeChg][NMeD]-Piperidide; lactam N-11)", "IC50": 3.1},
      {"smiles": "CC[C@H](C)[C@@H]1NC(=O)[C@H](CC(C)C)N(C)C(=O)C[C@@H](C(=O)N2CCCCC2)N(C)C(=O)[C@H](C2CCCCC2)N(C)C(=O)C2(CCCC2)NC(=O)[C@@H]2CCCN2C(=O)[C@H](CCc2ccc(C(F)(F)F)c(Cl)c2)NC(=O)CN(C)C(=O)[C@H](CCC(F)F)N(C)C(=O)CN(C)C(=O)CN(C)C1=O", "note": "[Compound 1647] ([NMeL]I[Sar][Sar][NMeNva(5,5-F2)][Sar][hPhe(3-Cl-4-CF3)]P[Ac5c][NMeChg][NMeD]-Piperidide; lactam N-11)", "IC50": 3},
      {"smiles": "CC[C@H](C)[C@@H]1NC(=O)[C@H](CC(C)C)N(C)C(=O)C[C@@H](C(=O)N2CCCCC2)N(C)C(=O)[C@H]([C@@H](C)CC)N(C)C(=O)C2(CCCC2)NC(=O)[C@@H]2CCCN2C(=O)[C@H](CCc2ccc(C(F)(F)F)c(Cl)c2)NC(=O)CN(C)C(=O)[C@H](Cc2ccc(C)cc2)N(C)C(=O)CN(C)C(=O)CN(C)C1=O", "note": "[Compound 1649] ([NMeL]I[Sar][Sar][NMePhe(4-Me)][Sar][hPhe(3-Cl-4-CF3)]P[Ac5c][NMeI][NMeD]-Piperidide; lactam N-11)", "IC50": 0.42},
      {"smiles": "CC(C)CC[C@@H]1NC(=O)[C@H](CC(C)C)N(C)C(=O)C[C@@H](C(=O)N2CCCCC2)N(C)C(=O)[C@H](C2CCCCC2)N(C)C(=O)C2(CCCC2)NC(=O)[C@@H]2CCCN2C(=O)[C@H](CCc2ccc(C(F)(F)F)c(Cl)c2)NC(=O)CN(C)C(=O)[C@H](CC2CCCCC2)N(C)C(=O)CN(C)C(=O)CN(C)C1=O", "note": "[Compound 1651] ([NMeL][hLeu][Sar][Sar][NMeCha][Sar][hPhe(3-Cl-4-CF3)]P[Ac5c][NMeChg][NMeD]-Piperidide; lactam N-11)", "IC50": 4.9},
      {"smiles": "CC[C@H](C)[C@@H]1NC(=O)[C@H](C)N(C)C(=O)C[C@@H](C)NC(=O)[C@H](C(C)C)N(C)C(=O)C2(CCCC2)NC(=O)[C@@H]2CCCN2C(=O)[C@H](CCc2ccc(C(F)(F)F)c(Cl)c2)NC(=O)[C@@H](C)N(C)C(=O)[C@H](Cc2ccc(F)cc2)N(C)C(=O)CN(C)C(=O)CN(C)C1=O", "note": "[Compound 1655] (cyclo([Ac5c][NMeV][d(β3hA)][NMeA]I[Sar][Sar][NMePhe(4-F)][dNMeA][hPhe(3-Cl-4-CF3)]P))", "IC50": 85},
      {"smiles": "CC[C@H](C)[C@@H]1NC(=O)[C@H](CC(C)C)N(C)C(=O)C[C@@H](C(=O)N(C)C)N(C)C(=O)[C@H](C2CCCC2)N(C)C(=O)C2(CCCC2)NC(=O)[C@@H]2CCCN2C(=O)[C@H](CCc2ccc(C(F)(F)F)c(Cl)c2)NC(=O)CN(C)C(=O)[C@H](CC2CCCCC2)N(C)C(=O)CN(C)C(=O)CN(C)C1=O", "note": "[Compound 1659] ([NMeL]I[Sar][Sar][NMeCha][Sar][hPhe(3-Cl-4-CF3)]P[Ac5c][NMeGly(cPent)][NMeD]-NMe2; lactam N-11)", "IC50": 0.38},
      {"smiles": "CC[C@H](C)[C@@H]1NC(=O)[C@H](CC(C)C)N(C)C(=O)C[C@@H](C(=O)N2CCCC2)N(C)C(=O)[C@H]([C@@H](C)CC)N(C)C(=O)C2(CCCC2)NC(=O)[C@@H]2CCCN2C(=O)[C@H](CCc2ccc(C(F)(F)F)c(Cl)c2)NC(=O)CN(C)C(=O)[C@H](CC2CCCCC2)N(C)C(=O)CN(C)C(=O)CN(C)C1=O", "note": "[Compound 1662] ([NMeL]I[Sar][Sar][NMeCha][Sar][hPhe(3-Cl-4-CF3)]P[Ac5c][NMeI][NMeD]-Pyrrolidide; lactam N-11)", "IC50": 0.65}
    ]}
  ]
}
